Measurements published in publication PMC8374946 (European journal of pharmacology, 2021).

Legend:
[1] = test system: nontransfected HEK293T cells; assay: Ca2+ fluorescent assay in nontransfected HEK293T cells; type: cell-based; details: 10 µM for XLR-11, UR-144, AM1220
human TRPV1 channel = human TRPV1 channel (Homo sapiens, UniProt Q8NER1); assay: TRPV1 channel Ca2+ fluorescent; type: cell-based; details: for TRPV1 channel Ca2+ signal Emax: normalized to signal with 1 µM capsaicin, HEK293T-TRPV1 cells
Sequence of human TRPV1 channel (Q8NER1 whole entry): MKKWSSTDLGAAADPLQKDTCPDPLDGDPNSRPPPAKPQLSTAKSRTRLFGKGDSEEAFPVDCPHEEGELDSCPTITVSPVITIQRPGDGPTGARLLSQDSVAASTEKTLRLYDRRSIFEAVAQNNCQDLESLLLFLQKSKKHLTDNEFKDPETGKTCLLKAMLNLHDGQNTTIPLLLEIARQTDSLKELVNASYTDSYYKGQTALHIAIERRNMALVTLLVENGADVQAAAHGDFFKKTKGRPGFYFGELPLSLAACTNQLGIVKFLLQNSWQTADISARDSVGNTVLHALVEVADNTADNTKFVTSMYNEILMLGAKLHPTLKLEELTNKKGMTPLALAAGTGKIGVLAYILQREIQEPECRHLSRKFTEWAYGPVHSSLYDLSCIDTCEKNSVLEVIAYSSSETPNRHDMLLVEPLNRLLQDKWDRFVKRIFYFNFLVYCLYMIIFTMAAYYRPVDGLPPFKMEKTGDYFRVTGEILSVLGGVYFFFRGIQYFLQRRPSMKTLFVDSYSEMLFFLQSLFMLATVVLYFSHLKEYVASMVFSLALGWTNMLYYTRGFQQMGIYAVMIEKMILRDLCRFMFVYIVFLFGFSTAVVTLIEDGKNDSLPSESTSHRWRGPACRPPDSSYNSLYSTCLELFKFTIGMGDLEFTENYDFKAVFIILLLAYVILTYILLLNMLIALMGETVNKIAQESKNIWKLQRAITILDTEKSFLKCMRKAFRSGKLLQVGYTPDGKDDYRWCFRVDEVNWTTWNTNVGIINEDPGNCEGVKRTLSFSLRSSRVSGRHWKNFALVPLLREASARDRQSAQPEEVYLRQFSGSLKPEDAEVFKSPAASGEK

[2] = target: human cannabinoid type-1 (CB1) receptor (Homo sapiens, UniProt P21554); type: cell-based
Sequence of human cannabinoid type-1 (CB1) receptor (P21554 whole entry): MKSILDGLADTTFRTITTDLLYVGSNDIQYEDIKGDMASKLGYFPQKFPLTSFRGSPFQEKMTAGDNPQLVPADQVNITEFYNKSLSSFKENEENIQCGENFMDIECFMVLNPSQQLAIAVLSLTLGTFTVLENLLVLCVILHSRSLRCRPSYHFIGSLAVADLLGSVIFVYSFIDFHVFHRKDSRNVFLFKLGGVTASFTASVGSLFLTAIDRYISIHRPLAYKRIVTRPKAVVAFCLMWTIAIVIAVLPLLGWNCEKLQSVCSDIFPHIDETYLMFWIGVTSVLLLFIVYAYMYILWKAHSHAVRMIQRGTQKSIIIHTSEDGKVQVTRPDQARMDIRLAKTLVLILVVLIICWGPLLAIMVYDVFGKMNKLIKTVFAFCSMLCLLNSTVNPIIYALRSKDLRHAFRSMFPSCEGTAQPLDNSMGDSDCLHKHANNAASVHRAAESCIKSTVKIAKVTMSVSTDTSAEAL

TRPV1 channels = details: read-out: EC50 for TRPV1 channel activation; ref Soethoudt et al., 2017; cited from earlier work

CCCCC/C=C\C/C=C\C/C=C\C/C=C\CCCC(=O)NCCO [AEA, N-arachidonoylethanolamine]
Ca2+ transients in nontransfected HEK293T cells [1]: not observed
EC50 (human TRPV1 channel): 2.1 µM
TRPV1 channel Ca2+ signal Emax (human TRPV1 channel): 0.35

CN1CCCCC1Cn1cc(C(=O)c2cccc3ccccc23)c2ccccc21 (stereo not drawn) [AM1220]
Ca2+ transients in nontransfected HEK293T cells [1]: not observed
TRPV1 channel Ca2+ signal Emax (human TRPV1 channel): 0.26

CCCC(C)(C)c1ccc2c(c1)OC(C)(C)[C@@H]1CC=C(C)C[C@@H]21 [JWH-133]
CB1 receptor-mediated activation of the GIRK channels [2]: no CB1 receptor-mediated activation
EC50 (TRPV1 channels): 8.2 µM

CCCCCn1cc(C(=O)C2C(C)(C)C2(C)C)c2ccccc21 [UR-144]
Ca2+ transients in nontransfected HEK293T cells [1]: not observed
TRPV1 channel Ca2+ signal Emax (human TRPV1 channel): 0.23

CC1(C)C(C(=O)c2cn(CCCCCF)c3ccccc23)C1(C)C [XLR-11]
Ca2+ transients in nontransfected HEK293T cells [1]: not observed
TRPV1 channel Ca2+ signal Emax (human TRPV1 channel): 0.39

COc1cc(CNC(=O)CCCC/C=C/C(C)C)ccc1O [capsaicin]
Ca2+ transients in nontransfected HEK293T cells [1]: not observed
